Measurements taken from PubChem BioAssay AID1918996 (Molecular Pharmacology Branch, DTP, NCI, 2023).
Values joined by “and” are separate entries in the source; they are usually repeats but may differ in a detail not shown here. Identical values can stand only once.

Test system: 349418-098-R-PDC complex spheroid growth
Assay: Anticancer human tumor 349418-098-R-PDC patient-derived lung adenocarcinoma cell line growth inhibition [AhR]
Details: for viability, T/C: stronger effect = lower value; active = viability on the fitted dose curve at most 10% of control; inactive = the rest
Source text: Multicellular complex tumor spheroid response to aryl hydrocarbon receptor antagonists in combination with a variety of drugs and investigational agents in selected tumor cell lines
The current study was undertaken to assess response to aryl hydrocarbon receptor antagonists in combination with standard-of-care drugs and investigational agents in solid tumor complex spheroid models. Complex spheroids include a stromal component modeled by human endothelial cells (HUVEC) and fibroblasts modeled by human mesenchymal stem cells (MSCs). The concentration ranges selected for each drug and investigational agent were based upon clinically achievable concentrations if the clinical Cmax of the agent was known.
Compounds. The drugs and investigational agents: BAY 2416964 (NSC825713), GNF351 (NSC835774), CH-223191 (NSC835775), CPI-455 (NSC825282), aza-TdCyd (NSC777586), decitabine (NSC127716), belinostat (NSC758774), entinostat (NSC756642), pevonedistat (NSC761192), tazemetostat (NSC777109), talazoparib (NSC765396), olaparib (NSC753686), selinexor (NSC780203), nedisertib (M3814, NSC802822), bortezomib (NSC756655), venetoclax (NSC766270), doxorubicin (NSC123127), elimusertib (BAY189344, NSC800525), ceralasertib (AZD6738, NSC777638), TAK-243 (NSC785004), alisertib (NSC759677), etoposide (NSC141540), topotecan (NSC609699), eribulin (NSC707389), gemcitabine (NSC613327), carboplatin (NSC241240), cisplatin (NSC119875), and SN-38 (NSC673596) were obtained from the National Cancer Institute (NCI) Developmental Therapeutics Program Chemical Repository (32). The FDA-approved anticancer drug set is available from the Developmental Therapeutics Program at https://dtp.cancer.gov/organization/dscb/obtaining/available plates.htm. […] The stock solutions were prepared in dimethyl sulfoxide (DMSO, Sigma-Aldrich, St. Louis, MO, cat. D2650), except for the platinum compounds which were prepared in saline (Quality Biological, Gaithersburg, MD, cat. 114-055-101), at 800-fold the tested concentration and stored at -70 degrees C prior to their use. All drugs and investigational agents were tested over a range starting from a high concentration at or near the clinical Cmax and decreasing in half-log increments. If the clinical Cmax for an agent had not been determined, the highest concentration tested was 10 microM (Table 1).
Cell Culture. All cells were maintained in an incubator at 37 degrees C and 5% CO2 with 95% humidity. The PDC lines were cultured according to standard operating procedures established by the NCI PDMR (https://pdmr.cancer.gov). Briefly, all PDCs were thawed and cultured in Matrigel-coated flasks prepared with a working solution of 1X Ham's F-12 nutrient mix, without supplementation (Invitrogen, Waltham, MA, cat. 11765054), 100 U/mL penicillin-streptomycin (Invitrogen, cat. 15140122), and 2.5% Matrigel (Corning Inc., Corning, NY, cat. 354248) for the first three passages. All PDCs were cultured in complete DMEM/F-12 media containing advanced DMEM/F-12 (Invitrogen, cat. 12634028), 4.9% defined fetal bovine serum, heat inactivated (HyClone Laboratories Inc., Logan, UT, cat. SH30070.03HI), 389 ng/mL hydrocortisone (Sigma-Aldrich, cat. H4001), 9.7 ng/mL human EGF recombinant protein (Invitrogen, cat. PHG0313), 23.4 microg/mL adenine (Sigma-Aldrich, cat. A2786), 97.3 U/mL penicillin-streptomycin (Invitrogen, cat. 15140122), 1.9 mM L-glutamine (Invitrogen, cat. 25030081), and 9.7 microM Y-27632 dihydrochloride (Tocris Bioscience, Bristol, United Kingdom, cat. 1254). The PDCs were cultured in complete DMEM/F12 media without 10 microM Y-27632 dihydrochloride for at least two passages prior to the screen. The established cell lines NCI-H1341 and […] were cultured in DMEM/F-12, HEPES (Invitrogen, cat. 11330032), 5% defined fetal bovine serum (HyClone Laboratories Inc., cat. SH30070.03), ITS premix universal culture supplement [insulin (5 microg/mL), transferrin (5 microg/mL), and selenious acid (5 ng/mL)] […]

[1] = curve of first compound, second compound 0.1 µM
[2] = curve of first compound, second compound 0.316 µM
[3] = curve of first compound, second compound 1 µM
[4] = curve of first compound, second compound 3.16 µM
[5] = curve of first compound, second compound 10 µM
[6] = second compound 0.1 µM, first compound 0.0316 µM
[7] = second compound 0.1 µM, first compound 0.1 µM
[8] = second compound 0.1 µM, first compound 0.316 µM
[9] = second compound 0.1 µM, first compound 1 µM
[10] = second compound 0.1 µM, first compound 3.16 µM
[11] = second compound 0.1 µM, first compound 10 µM
[12] = second compound 0.316 µM, first compound 0.0316 µM
[13] = second compound 0.316 µM, first compound 0.1 µM
[14] = second compound 0.316 µM, first compound 0.316 µM
[15] = second compound 0.316 µM, first compound 1 µM
[16] = second compound 0.316 µM, first compound 3.16 µM
[17] = second compound 0.316 µM, first compound 10 µM
[18] = second compound 1 µM, first compound 0.0316 µM
[19] = second compound 1 µM, first compound 0.1 µM
[20] = second compound 1 µM, first compound 0.316 µM
[21] = second compound 1 µM, first compound 1 µM
[22] = second compound 1 µM, first compound 3.16 µM
[23] = second compound 1 µM, first compound 10 µM
[24] = second compound 3.16 µM, first compound 0.0316 µM
[25] = second compound 3.16 µM, first compound 0.1 µM
[26] = second compound 3.16 µM, first compound 0.316 µM
[27] = second compound 3.16 µM, first compound 1 µM
[28] = second compound 3.16 µM, first compound 3.16 µM
[29] = second compound 3.16 µM, first compound 10 µM
[30] = second compound 10 µM, first compound 0.0316 µM
[31] = second compound 10 µM, first compound 0.1 µM
[32] = second compound 10 µM, first compound 0.316 µM
[33] = second compound 10 µM, first compound 1 µM
[34] = second compound 10 µM, first compound 3.16 µM
[35] = second compound 10 µM, first compound 10 µM
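Also: spheroids exposed to agents for seven days before luminescence viability read.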
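For viability, T/C in this document: spheroids also contain HUVEC endothelial cells and human MSC stroma.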

NS(=O)(=O)OCC1CC(n2ccc3c(NC4CCc5ccccc54)ncnc32)CC1O (configuration not stated) + Cc1cncc(-c2nc(NCCc3c[nH]c4ccccc34)c3ncn(C(C)C)c3n2)c1
inactive: viability, T/C [6] 101% | viability, T/C [7] 69.6% | viability, T/C [8] 35.1% | viability, T/C [9] 14.4% | viability, T/C [12] 89.1% | viability, T/C [13] 71.6% | viability, T/C [14] 19% | viability, T/C [18] 86.2% | viability, T/C [19] 63.3% | viability, T/C [20] 19.2% | viability, T/C [24] 28.4% | viability, T/C [25] 26.2% | viability, T/C [26] 18.7% | viability, T/C [27] 7.99%
< 31.6 nM: IC50 [4] | IC50 [5]
161 nM: IC50 [2]
142 nM: IC50 [3]
active: viability, T/C [10] 9.84% | viability, T/C [11] 4.65% | viability, T/C [15] 12.2% | viability, T/C [16] 6.13% | viability, T/C [17] 4.07% | viability, T/C [21] 12.1% | viability, T/C [22] 6.14% | viability, T/C [23] 4.69% | viability, T/C [28] 3.97% | viability, T/C [29] 3.43% | viability, T/C [30] 2.2% | viability, T/C [31] 1.97% | viability, T/C [32] 1.34% | viability, T/C [33] 0.88% | viability, T/C [34] 1.03% | viability, T/C [35] 0.56%
192 nM: IC50 [1]

Nc1ccn(C2OC(CO)C(O)C2(F)F)c(=O)n1 (configuration not stated) + CC(CO)NC(=O)c1cc(-c2ccc(Cl)cc2)nn(-c2cnn(C)c2)c1=O
active: viability, T/C [16] 9.24% | viability, T/C [17] 6.37% | viability, T/C [22] 8.78% | viability, T/C [23] 5.77% | viability, T/C [27] 9.14% | viability, T/C [28] 7.92% | viability, T/C [29] 7.72% | viability, T/C [33] 8.92% | viability, T/C [34] 7.77% | viability, T/C [35] 8.23%
< 31.6 nM: IC50 [1] | IC50 [2] | IC50 [3] | IC50 [4] | IC50 [5]
inactive: viability, T/C [6] 11.7% | viability, T/C [7] 13.3% | viability, T/C [8] 12.8% | viability, T/C [9] 10.8% | viability, T/C [10] 9.89% | viability, T/C [11] 7.31% | viability, T/C [12] 11.5% | viability, T/C [13] 12.5% | viability, T/C [14] 13.3% | viability, T/C [15] 10.6% | viability, T/C [18] 12.7% | viability, T/C [19] 13.5% | viability, T/C [20] 13.3% | viability, T/C [21] 11.2% | viability, T/C [24] 12.1% | viability, T/C [25] 13.4% | viability, T/C [26] 12.8% | viability, T/C [30] 12.3% | viability, T/C [31] 11% | viability, T/C [32] 11.6%

Nc1ncn(C2CC(O)C(CO)O2)c(=O)n1 (configuration not stated)
204 nM and 54 nM and 32.5 nM: IC50 (curve of compound)
inactive: viability, T/C (compound 0.00316 µM) 105% and 99.7% and 103% | viability, T/C (compound 0.01 µM) 103% (2×) and 68.3% | viability, T/C (compound 0.0316 µM) 80% and 57.7% and 46.6% | viability, T/C (compound 0.1 µM) 67% and 49.8% and 46.6% | viability, T/C (compound 0.316 µM) 38.9% and 42.3% and 32.5% | viability, T/C (compound 1 µM) 32.3% and 31.3% and 26.1%
